The text below walks through data of US9758524B2, “4-imidazopyridazin-1-yl-benzamides as Btk inhibitors” (Merck Sharp & Dohme B.V., priority 2011, dated 2017).

pEC50: −log10 of the molar value. Several values for one entry are separate records, joined by “and”; a condition that tells them apart may be missing. Equal entries are not always repeated. Where two headings read alike, the source gives them in different places.

The target of experiment [1] is Src enzyme (Homo sapiens (Human), UniProt P12931). The experiment can be described thus: Src enzyme activity (IMAP fluorescence polarization assay). The following applies: read-out: EC50 Src activity values; IMAP, 60 min pre-incubation, 4 μM ATP. (In general: In fluorescence polarisation assays a small probe gives low polarisation when free and higher when bound to something large.)

The target of experiment [2] is Btk enzyme (His-Btk) (Homo sapiens (Human), UniProt Q06187). The experiment can be described thus: Btk enzyme activity (IMAP fluorescence polarization assay). To be noted: for EC50: read-out: EC50 Btk activity values; for EC50 / EC50 Btk activity values: IMAP, 60 min pre-incubation, 5 μM ATP.
Description: Inhibition of kinase activity can be measured using the Immobilized Metal Assay for Phosphochemicals (IMAP) assay. IMAP is a homogeneous fluorescence polarization (FP) assay based on affinity capture of phosphorylated peptide substrates. IMAP uses fluorescein-labeled peptide substrates that, upon phosphorylation by a protein kinase, bind to so-called IMAP nanoparticles, which are derivatized with trivalent metal complexes.
Final peptide substrate concentration in assay is 50 nM.
Experiment [3] concerns the target FynT enzyme (Homo sapiens (Human), UniProt P06241). The experiment is described as follows: FynT enzyme activity (IMAP fluorescence polarization assay). To be noted: 60 min pre-incubation, 0.2 μM ATP. The format is biochemical. The essentials: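 Human FynT pre-incubated with compounds 60 min at room temperature, then reacted 2 h at room temperature with fluorescein-labelled p34cdc2 peptide (100 nM final). Stopped with IMAP binding solution; fluorescence polarization read after 60 min. Activity as % of ±ATP control difference; EC50 by curve fitting.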

Experiment [4] concerns the target Lyn enzyme (Homo sapiens (Human), UniProt P07948). The experiment can be described thus: Lyn enzyme activity (IMAP fluorescence polarization assay).
Experiment [5] concerns the target Lck enzyme (Homo sapiens (Human), UniProt P06239). The experiment is described as follows: Lck enzyme activity (IMAP fluorescence polarization assay). To be noted: for EC50: read-out: EC50 Lck activity values; for EC50 / EC50 Lck activity values: IMAP, 60 min pre-incubation, 6 μM ATP, bin bound in μM.
Setting [6] is: read-out: EC50 Lyn activity values, 60 min pre-incubation, 2 μM ATP, bin bound in μM.
Where [7] appears, read: EC50 Lyn activity values, 60 min pre-incubation, 2 μM ATP, bin bound in nM.

Chain of Src enzyme (P12931 whole entry, looked up): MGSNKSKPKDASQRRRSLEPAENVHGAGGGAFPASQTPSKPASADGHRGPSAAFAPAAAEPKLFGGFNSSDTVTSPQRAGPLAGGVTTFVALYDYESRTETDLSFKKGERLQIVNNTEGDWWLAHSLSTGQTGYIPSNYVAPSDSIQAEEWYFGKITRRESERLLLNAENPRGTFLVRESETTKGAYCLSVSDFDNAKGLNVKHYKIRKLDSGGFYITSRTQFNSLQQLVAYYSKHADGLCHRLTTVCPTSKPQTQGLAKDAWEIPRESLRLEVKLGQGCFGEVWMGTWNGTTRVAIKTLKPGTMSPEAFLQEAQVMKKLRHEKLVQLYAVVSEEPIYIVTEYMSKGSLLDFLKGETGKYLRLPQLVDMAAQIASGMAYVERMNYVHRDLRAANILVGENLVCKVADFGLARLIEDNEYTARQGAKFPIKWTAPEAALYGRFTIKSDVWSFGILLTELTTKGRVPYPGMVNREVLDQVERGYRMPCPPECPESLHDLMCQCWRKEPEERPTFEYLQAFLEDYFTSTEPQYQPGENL
Chain of Lck enzyme (P06239 whole entry): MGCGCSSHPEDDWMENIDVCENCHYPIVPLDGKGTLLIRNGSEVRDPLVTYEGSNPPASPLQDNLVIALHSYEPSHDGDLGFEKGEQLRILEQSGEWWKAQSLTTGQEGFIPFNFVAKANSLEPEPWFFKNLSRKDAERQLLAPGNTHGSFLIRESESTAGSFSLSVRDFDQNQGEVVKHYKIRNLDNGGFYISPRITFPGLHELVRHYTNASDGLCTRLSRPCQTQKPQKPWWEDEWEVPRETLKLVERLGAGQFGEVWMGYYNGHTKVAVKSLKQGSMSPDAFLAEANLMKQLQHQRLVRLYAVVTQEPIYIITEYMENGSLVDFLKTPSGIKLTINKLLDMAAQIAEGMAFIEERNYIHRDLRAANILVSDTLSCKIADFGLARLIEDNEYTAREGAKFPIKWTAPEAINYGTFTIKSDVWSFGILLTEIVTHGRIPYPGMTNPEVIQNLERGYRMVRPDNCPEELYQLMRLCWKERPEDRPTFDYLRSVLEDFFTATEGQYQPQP
Chain of Lyn enzyme (P07948 whole entry): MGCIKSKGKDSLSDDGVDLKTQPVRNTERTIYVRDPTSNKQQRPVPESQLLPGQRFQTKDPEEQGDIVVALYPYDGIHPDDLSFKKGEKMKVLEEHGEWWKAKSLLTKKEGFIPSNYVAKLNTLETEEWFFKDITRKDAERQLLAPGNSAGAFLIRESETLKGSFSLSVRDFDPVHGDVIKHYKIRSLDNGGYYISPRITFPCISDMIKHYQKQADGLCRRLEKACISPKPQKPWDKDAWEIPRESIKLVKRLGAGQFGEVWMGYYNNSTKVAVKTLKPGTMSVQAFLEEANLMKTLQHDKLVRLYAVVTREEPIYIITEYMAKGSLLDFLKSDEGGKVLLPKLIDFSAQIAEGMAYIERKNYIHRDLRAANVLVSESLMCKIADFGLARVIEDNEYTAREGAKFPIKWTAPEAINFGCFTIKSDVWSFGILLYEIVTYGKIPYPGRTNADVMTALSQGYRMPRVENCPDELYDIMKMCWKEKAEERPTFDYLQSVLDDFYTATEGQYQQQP
Chain of FynT enzyme (P06241 other isoform, or with tags, fused parts or gaps): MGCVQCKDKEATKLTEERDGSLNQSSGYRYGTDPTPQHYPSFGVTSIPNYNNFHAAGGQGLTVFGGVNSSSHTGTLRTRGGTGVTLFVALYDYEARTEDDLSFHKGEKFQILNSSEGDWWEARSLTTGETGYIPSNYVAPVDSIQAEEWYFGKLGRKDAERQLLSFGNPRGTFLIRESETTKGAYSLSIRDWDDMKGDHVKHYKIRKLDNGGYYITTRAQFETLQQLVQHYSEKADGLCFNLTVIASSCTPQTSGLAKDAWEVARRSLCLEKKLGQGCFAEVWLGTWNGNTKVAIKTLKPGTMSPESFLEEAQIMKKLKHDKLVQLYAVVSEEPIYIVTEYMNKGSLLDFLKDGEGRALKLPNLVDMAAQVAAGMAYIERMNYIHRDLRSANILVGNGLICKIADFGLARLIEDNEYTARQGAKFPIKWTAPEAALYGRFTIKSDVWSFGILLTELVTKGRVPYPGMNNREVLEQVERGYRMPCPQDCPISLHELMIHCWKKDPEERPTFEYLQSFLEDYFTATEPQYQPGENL
Chain of Btk enzyme (His-Btk) (Q06187 whole entry): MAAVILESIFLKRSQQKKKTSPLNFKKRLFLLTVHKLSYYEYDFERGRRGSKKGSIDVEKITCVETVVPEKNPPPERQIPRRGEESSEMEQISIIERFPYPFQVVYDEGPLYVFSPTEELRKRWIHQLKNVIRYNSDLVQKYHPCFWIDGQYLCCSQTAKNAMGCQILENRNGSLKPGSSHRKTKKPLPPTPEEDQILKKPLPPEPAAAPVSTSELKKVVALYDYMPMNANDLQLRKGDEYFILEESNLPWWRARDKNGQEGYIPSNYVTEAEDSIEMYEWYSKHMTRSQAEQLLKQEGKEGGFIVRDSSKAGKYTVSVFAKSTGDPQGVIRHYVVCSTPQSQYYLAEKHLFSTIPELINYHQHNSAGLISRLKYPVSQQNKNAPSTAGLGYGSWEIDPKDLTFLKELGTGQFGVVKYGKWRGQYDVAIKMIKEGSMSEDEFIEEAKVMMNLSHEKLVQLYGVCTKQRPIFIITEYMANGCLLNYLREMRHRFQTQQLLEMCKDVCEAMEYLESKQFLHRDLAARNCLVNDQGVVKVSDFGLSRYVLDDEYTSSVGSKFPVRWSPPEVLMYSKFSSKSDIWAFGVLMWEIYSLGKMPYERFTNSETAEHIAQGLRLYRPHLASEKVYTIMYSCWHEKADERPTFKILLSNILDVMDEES

The pEC50 is the EC50 on a negative log10 scale, so that one unit is a factor of ten. As a reminder, the EC50 is the midpoint of the concentration-response curve. Consider `CC#CC(=O)N1CCCC[C@H]1c1nc(-c2ccc(C(=O)Nc3ccncn3)cc2)c2c(N)nccn12` [Example 22, (S)-4-(8-Amino-3-(1-but-2-ynoylpiperidin-2-yl)imidazo[1,5-a]pyrazin-1-yl)-N-(pyrimidin-4-yl)benzamide], for which the pEC50 in experiment [1] and in experiment [3] was at most 6.00 in each case. The EC50 in experiment [2] (bin bound in nM) is below 10 nM; in experiment [4] (setting [6]), at least 1 µM; in experiment [5], at least 1 µM.
As for `COC/C=C/C(=O)N1CCC[C@H]1c1nc(-c2ccc(C(=O)Nc3nc4c(s3)CCCC4)cc2)c2c(N)nccn12` [Example 82, (S,E)-4-(8-amino-3-(1-(4-methoxybut-2-enoyl)pyrrolidin-2-yl)imidazo[1,5-a]pyrazin-1-yl)-N-(4,5,6,7-tetrahydrobenzo[d]thiazol-2-yl)benzamide], the values for the pEC50 in experiment [1], in experiment [2] and in experiment [3] were at most 6.00, 7.00 to 8.00 and at most 6.00, respectively. The “EC50 Btk activity values” in experiment [2] (bin bound in nM) is on record as below 100 nM. Further, the EC50 in experiment [4] (setting [6]) and in experiment [5] was at least 1 µM in each case.
For `CCCc1ccnc(NC(=O)c2ccc(-c3nc([C@@H]4CCCN4C(=O)/C=C/CN4CCCC4)n4ccnc(N)c34)cc2)c1` [Example 77, (S,E)-4-(8-amino-3-(1-(4-(pyrrolidin-1-yl)but-2-enoyl)pyrrolidin-2-yl)imidazo[1,5-a]pyrazin-1-yl)-N-(4-propylpyridin-2-yl)benzamide], the pEC50 in experiment [1] and in experiment [3] was at most 6.00 in each case. Moreover, the EC50 in experiment [2] (bin bound in nM) was below 10 nM; in experiment [4] (setting [6]), at least 1 µM; in experiment [5], at least 1 µM.
As to `CC#CC(=O)N1CCC[C@H]1c1nc(-c2ccc(C(=O)Nc3nccs3)cc2)c2c(N)nccn12` [Example 60, (S)-4-(8-amino-3-(1-but-2-ynoylpyrrolidin-2-yl)imidazo[1,5-a]pyrazin-1-yl)-N-(thiazol-2-yl)benzamide], the pEC50 in experiment [1] is at most 6.00; in experiment [2], 7.00 to 8.00; in experiment [3], at most 6.00; in experiment [5], 6.00 to 7.00. In experiment [2] (bin bound in nM), the “EC50 Btk activity values” is listed as below 100 nM. In addition, the EC50 in experiment [4] (setting [7]) is at least 0.1 µM; in experiment [4] (EC50 Lyn activity values, 60 min pre-incubation, 2 μM ATP, bin bound in μM), < 1 µM and ≥ 1 µM. Moreover, the “EC50 Lck activity values” in experiment [5] is below 1 µM.
Turning to `C=CC(=O)N1CCC[C@H]1c1nc(-c2ccc(C(=O)Nc3cc(C)ccn3)cc2)c2c(N)nccn12` [Example 124, (S)-4-(3-(1-acryloylpyrrolidin-2-yl)-8-aminoimidazo[1,5-a]pyrazin-1-yl)-N-(4-methylpyridin-2-yl)benzamide], the figures for the pEC50 in experiment [1], in experiment [3] and in experiment [5] were at most 6.00, at most 6.00 and 6.00 to 7.00, respectively. The 50% effective concentration (EC50) in experiment [2] (bin bound in nM) is below 10 nM; in experiment [4] (setting [7]) it was 0.1 to 1 µM. In addition, the “EC50 Lyn activity values” in experiment [4] (60 min pre-incubation, 2 μM ATP, bin bound in μM) is below 1 µM. Also, the “EC50 Lck activity values” in experiment [5] is below 1 µM.
Turning to `Nc1nccn2c([C@@H]3CCCCN3C(=O)c3ccnc(Cl)n3)nc(-c3ccc(C(=O)Nc4cc(C(F)(F)F)ccn4)cc3)c12` [Example 115, (S)-4-(8-amino-3-(1-(2-chloropyrimidine-4-carbonyl)piperidin-2-yl)imidazo[1,5-a]pyrazin-1-yl)-N-(4-(trifluoromethyl)pyridin-2-yl)benzamide], the pEC50 in experiment [1] and in experiment [3] was at most 6.00 each time. For the same molecule, the EC50 is below 10 nM in experiment [2] (bin bound in nM), at least 1 µM in experiment [4] (setting [6]) and at least 1 µM in experiment [5].
Consider `Nc1nccn2c([C@@H]3CCCN3C(=O)c3ccnc(Cl)n3)nc(-c3ccc(C(=O)Nc4cc(C(F)(F)F)ccn4)cc3)c12` [Example 119, (S)-4-(8-amino-3-(1-(2-chloropyrimidine-4-carbonyl)pyrrolidin-2-yl)imidazo[1,5-a]pyrazin-1-yl)-N-(4-(trifluoromethyl)pyridin-2-yl)benzamide], for which the pEC50 in experiment [1] was at most 6.00; in experiment [2], 7.00 to 8.00; in experiment [3], at most 6.00. For the same molecule, the “EC50 Btk activity values” in experiment [2] (bin bound in nM) is given as below 100 nM. Further, the EC50 in experiment [4] (setting [6]) and in experiment [5] was at least 1 µM in each case.
As to `CC(C)(O)C#CC(=O)N1CCC[C@H]1c1nc(-c2ccc(C(=O)Nc3ccccn3)cc2)c2c(N)nccn12` [Example 32, (S)-4-(8-Amino-3-(1-(4-hydroxy-4-methylpent-2-ynoyl)pyrrolidin-2-yl)imidazo[1,5-a]pyrazin-1-yl)-N-(pyridin-2-yl)benzamide], the pEC50 in experiment [1] and in experiment [3] was at most 6.00 each time. The EC50 in experiment [2] (bin bound in nM) was below 10 nM; in experiment [4] (setting [6]) it was at least 1 µM; in experiment [5] it was at least 1 µM.
Regarding `C=CS(=O)(=O)N1CCCC[C@H]1c1nc(-c2ccc(C(=O)Nc3ccccn3)cc2C)c2c(N)nccn12` [Example 66, 4-(8-amino-3-((S)-1-(vinylsulfonyl)piperidin-2-yl)imidazo[1,5-a]pyrazin-1-yl)-3-methyl-N-(pyridin-2-yl)benzamide], the pEC50 in experiment [1] and in experiment [3] was at most 6.00 in each case. Besides, the EC50 in experiment [2] (bin bound in nM) is below 10 nM; in experiment [4] (setting [6]) it was at least 1 µM; in experiment [5], at least 1 µM.
On to `Nc1nccn2c([C@@H]3CCCCN3C(=O)c3ccnc(Cl)n3)nc(-c3ccc(C(=O)Nc4ncccn4)cc3)c12` [Example 90, (S)-4-(8-amino-3-(1-(2-chloropyrimidine-4-carbonyl)piperidin-2-yl)imidazo[1,5-a]pyrazin-1-yl)-N-(pyrimidin-2-yl)benzamide], for which the values for the pEC50 in experiment [1], in experiment [2] and in experiment [3] were at most 6.00, 6.00 to 7.00 and at most 6.00, respectively. In experiment [2] (bin bound in μM), the “EC50 Btk activity values” was below 1000 nM. Further, the EC50 in experiment [4] (setting [6]) and in experiment [5] was at least 1 µM each time.
As for `COC/C=C/C(=O)N1CCC[C@H]1c1nc(-c2ccc(C(=O)Nc3ccccn3)c(F)c2)c2c(N)nccn12` [Example 52], the pEC50 in experiment [1] is at most 6.00; in experiment [2] it was 6.00 to 7.00; in experiment [3], at most 6.00. Also, in experiment [2] (bin bound in μM), the “EC50 Btk activity values” was below 1000 nM. The EC50 in experiment [4] (setting [6]) and in experiment [5] was at least 1 µM in each case.
Take `CC#CC(=O)N1CCOC[C@H]1c1nc(-c2ccc(C(=O)Nc3ccccn3)cc2)c2c(N)nccn12` [Example 38, (R)-4-(8-Amino-3-(4-but-2-ynoylmorpholin-3-yl)imidazo[1,5-a]pyrazin-1-yl)-N-(pyridin-2-yl)benzamide]: the pEC50 in experiment [1] and in experiment [3] was at most 6.00 each time. Moreover, the EC50 is below 10 nM in experiment [2] (bin bound in nM), at least 1 µM in experiment [4] (setting [6]) and at least 1 µM in experiment [5].
Regarding `C=CC(=O)N1CCCC[C@H]1c1nc(-c2ccc(C(=O)Nc3cc(C(F)(F)F)ccn3)cc2)c2c(N)nccn12` [Example 109, (S)-4-(3-(1-acryloylpiperidin-2-yl)-8-aminoimidazo[1,5-a]pyrazin-1-yl)-N-(4-(trifluoromethyl)pyridin-2-yl)benzamide], the pEC50 in experiment [1] and in experiment [3] was at most 6.00 each time. Besides, the EC50 in experiment [2] (bin bound in nM) was below 10 nM; in experiment [4] (setting [6]), at least 1 µM; in experiment [5], at least 1 µM.
With `CCCc1ccnc(NC(=O)c2ccc(-c3nc([C@@H]4CCCCN4C(=O)/C=C/CN(C)C)n4ccnc(N)c34)cc2OC)c1` [Example 27, (S,E)-4-(8-Amino-3-(1-(4-(dimethylamino)but-2-enoyl)piperidin-2-yl)imidazo[1,5-a]pyrazin-1-yl)-2-methoxy-N-(4-propylpyridin-2-yl)benzamide], the pEC50 in experiment [1] and in experiment [3] was at most 6.00 each time. Also, the EC50 in experiment [2] (bin bound in nM) is below 10 nM; in experiment [4] (setting [6]), at least 1 µM; in experiment [5], at least 1 µM.
Take `COc1cc(-c2nc([C@@H]3CCCN3C(=O)c3ccnc(Cl)n3)n3ccnc(N)c23)ccc1C(=O)Nc1ccccn1` [Example 83, (S)-4-(8-amino-3-(1-(2-chloropyrimidine-4-carbonyl)pyrrolidin-2-yl)imidazo[1,5-a]pyrazin-1-yl)-2-methoxy-N-(pyridin-2-yl)benzamide]: the results for the pEC50 in experiment [1], in experiment [2] and in experiment [3] were at most 6.00, 7.00 to 8.00 and at most 6.00, respectively. For the same molecule, in experiment [2] (bin bound in nM), the “EC50 Btk activity values” is on record as below 100 nM. Besides, the EC50 in experiment [4] (setting [6]) and in experiment [5] was at least 1 µM each time.
Turning to `CC(=O)SCC(=O)N1CCC[C@H]1c1nc(-c2ccc(C(=O)Nc3ccccn3)cc2)c2c(N)nccn12` [Example 31, (S)—S-2-(2-(8-Amino-1-(4-(pyridin-2-ylcarbamoyl)phenyl)imidazo[1,5-a]pyrazin-3-yl)pyrrolidin-1-yl)-2-oxoethyl ethanethioate], the pEC50 in experiment [1] and in experiment [3] was at most 6.00 in each case. For the same molecule, the EC50 in experiment [2] (bin bound in nM) was below 10 nM; in experiment [4] (setting [6]) it was at least 1 µM; in experiment [5], at least 1 µM.
As for `C=CC(=O)N1CCCC[C@H]1c1nc(-c2ccc(C(=O)Nc3nccc(C)n3)cc2)c2c(N)nccn12` [Example 21, (S)-4-(3-(1-Acryloylpiperidin-2-yl)-8-aminoimidazo[1,5-a]pyrazin-1-yl)-N-(4-methylpyrimidin-2-yl)benzamide], the pEC50 in experiment [1] and in experiment [3] was at most 6.00 each time. The EC50 in experiment [2] (bin bound in nM) is below 10 nM; in experiment [4] (setting [6]), at least 1 µM; in experiment [5], at least 1 µM.
